Experimental data from patent US12396458B2, “Fused ring substituted aromatic compound and preparation method therefor, herbicidal composition, and use thereof” (Qingdao Kingagroot Chemical Compound Co., Ltd., priority 2020, dated 2025).

How the values were obtained:
Test in all cases: Weeding effect in post-emergence stage (greenhouse pot test)
Format in all cases: in vivo
Capsella bursa-pastoris = settings: dose 15 g a.i./ha, 3 weeks after application, fresh weight control rate
Excerpt: (§1) The activity level criteria for plant damage (i.e., growth control rate) are as follows:
(§2) Level 5: growth control rate is above 85%; • Level 4: growth control rate is greater than or equal to 60% and less than 85%; • Level 3: growth control rate is greater than or equal to 40% and less than 60%; • Level 2: growth control rate is greater than or equal to 20% and less than 40%; • Level 1: growth control rate is greater than or equal to 5% and less than 20%; • Level 0: growth control rate is less than 5%.
(§3) The above growth control rates are fresh weight control rates.
(§4) Experiment on weeding effect in post-emergence stage:
(§5) Monocotyledonous and dicotyledonous weed seeds (Descurainia sophia, Capsella bursa-pastoris, Abutilon theophrasti, Galium aparine, Stellaria media, Lithospermum arvense, Rorippa indica, Alopecurus aequalis, Alopecurus japonicus, Eleusine indica, Beckmannia syzigachne, Sclerochloa dura, Phleum paniculatum, Veronica didyma Tenore, Bromus japonicus, Aegilops tauschii, Phalaris arundinacea, Amaranthus retrojlexus, Chenopodiaceae, Commelina communis, Sonchus arvensis, convolvulus arvensis, Cirsium setosum, Solanum nigrum, Acalypha australis, Digitaria sanguinalis, Echinochloa crusgalli, Setaria viridis, Setaria glauca, Leptochloa chinensis, Monochoria vaginalis, Sagittaria trifolia, Scirpus juncoides, Cyperus rotundus, Cyperus iria, Cyperus difformis, Fimbristylis, Portulaca oleracea, Xanthium sibiricum, Pharbitis nil, Conyza japonica, etc.) and major crop seeds (wheat, corn, rice, soybean, cotton, oilseed rape, millet, sorghum, potato, sesame, ricinus, etc.) were placed in plastic pots filled with soil, then covered with 0.5-2 cm of soil, allowed to grow in a good greenhouse environment. After 2 weeks of sowing, the test plants were treated in the 2-3 leaf stage. The tested compounds of the present invention were respectively dissolved in acetone, then added with Tween 80 and 1.5 liter/ha of emulsifiable concentrate of methyl oleate as synergist, diluted with a certain amount of water to obtain a solution with a certain concentration, and sprayed with a spray tower onto the plants. After the application, the plants were cultured for 3 weeks in the greenhouse, and then the experimental results of the weeding were counted. The doses of the used compounds were 500, 250, 125, 60, 15, 7.5 g a.i./ha, and the averages were obtained by repeating for three times.

Beckmannia syzigachne = settings: dose 15 g a.i./ha, 3 weeks after application, fresh weight control rate
Excerpt: as §1, §2, §3, §4, §5

Conyza japonica = settings: post-emergence, dose 15 g a.i./ha, 3 weeks after application, fresh weight control rate
Excerpt: as §1, §2, §3, §4, §5

Alopecurus japonicus = settings: dose 15 g a.i./ha, 3 weeks after application, fresh weight control rate
Excerpt: as §1, §2, §3, §4, §5

| Structure (SMILES) | Activity level (growth control rate), Capsella bursa-pastoris (Capsella bursa-pastoris) | Activity level (growth control rate), Beckmannia syzigachne (Beckmannia syzigachne) | Activity level (growth control rate), Conyza japonica (Conyza japonica) | Activity level (growth control rate), Alopecurus japonicus (Alopecurus japonicus) |
| --- | --- | --- | --- | --- |
| COC(=O)C12CCCC1C(c1cc(-n3c(=O)n(C)c(=S)n(C)c3=O)c(F)cc1Cl)=NO2 (stereo not shown) [Compound 2] | 5 (Level 5: growth control rate is above 85%) | 5 (Level 5: growth control rate is above 85%) | 5 (Level 5: growth control rate is above 85%) | 5 (Level 5: growth control rate is above 85%) |
| CCCOC(=O)C12CCCC1C(c1cc(-n3c(=O)n(C)c(=S)n(C)c3=O)c(F)cc1Cl)=NO2 (stereo not shown) [Compound 4] | 5 (Level 5: growth control rate is above 85%) | 5 (Level 5: growth control rate is above 85%) | 4 (Level 4: growth control rate is greater than or equal to 60% and less than 85%) | 5 (Level 5: growth control rate is above 85%) |
| C=CCOC(=O)C12CCCC1C(c1cc(-n3c(=O)n(C)c(=S)n(C)c3=O)c(F)cc1Cl)=NO2 (stereo not shown) [Compound 10] | 5 (Level 5: growth control rate is above 85%) | 5 (Level 5: growth control rate is above 85%) | 4 (Level 4: growth control rate is greater than or equal to 60% and less than 85%) | 5 (Level 5: growth control rate is above 85%) |
| C#CCOC(=O)C12CCCC1C(c1cc(-n3c(=O)n(C)c(=S)n(C)c3=O)c(F)cc1Cl)=NO2 (stereo not shown) [Compound 13] | 5 (Level 5: growth control rate is above 85%) | 5 (Level 5: growth control rate is above 85%) | 4 (Level 4: growth control rate is greater than or equal to 60% and less than 85%) | 5 (Level 5: growth control rate is above 85%) |
| Cn1c(=S)n(C)c(=O)n(-c2cc(C3=NOC4(C(=O)OCC5CCCO5)CCCC34)c(Cl)cc2F)c1=O (stereo not shown) [Compound 49] | 5 (Level 5: growth control rate is above 85%) | 5 (Level 5: growth control rate is above 85%) | 4 (Level 4: growth control rate is greater than or equal to 60% and less than 85%) | 4 (Level 4: growth control rate is greater than or equal to 60% and less than 85%) |
| Cn1c(=S)n(C)c(=O)n(-c2cc(C3=NOC4(C(=O)OCc5ccccc5)CCCC34)c(Cl)cc2F)c1=O (stereo not shown) [Compound 51] | 5 (Level 5: growth control rate is above 85%) | 4 (Level 4: growth control rate is greater than or equal to 60% and less than 85%) | 4 (Level 4: growth control rate is greater than or equal to 60% and less than 85%) | 4 (Level 4: growth control rate is greater than or equal to 60% and less than 85%) |
| CC(C)=NOC(=O)C12CCCC1C(c1cc(-n3c(=O)n(C)c(=S)n(C)c3=O)c(F)cc1Cl)=NO2 (stereo not shown) [Compound 66] | 5 (Level 5: growth control rate is above 85%) | 4 (Level 4: growth control rate is greater than or equal to 60% and less than 85%) | 4 (Level 4: growth control rate is greater than or equal to 60% and less than 85%) | 5 (Level 5: growth control rate is above 85%) |
| COC(=O)C12CCCC1C(c1cc(-n3c(=O)cc(C(F)(F)F)n(C)c3=O)c(F)cc1Br)=NO2 (stereo not shown) [Compound 210] | 5 (Level 5: growth control rate is above 85%) | 5 (Level 5: growth control rate is above 85%) | 5 (Level 5: growth control rate is above 85%) | 5 (Level 5: growth control rate is above 85%) |
| Cn1c(C(F)(F)F)cc(=O)n(-c2cc(C3=NOC4(C(=O)O)CCCC34)c(Cl)cc2F)c1=O (stereo not shown) [Compound 213] | 5 (Level 5: growth control rate is above 85%) | 5 (Level 5: growth control rate is above 85%) | 4 (Level 4: growth control rate is greater than or equal to 60% and less than 85%) | 5 (Level 5: growth control rate is above 85%) |
| COC(=O)C12CCCC1C(c1cc(-n3c(=O)cc(C(F)(F)F)n(C)c3=O)c(F)cc1Cl)=NO2 (stereo not shown) [Compound 214] | 5 (Level 5: growth control rate is above 85%) | 5 (Level 5: growth control rate is above 85%) | 5 (Level 5: growth control rate is above 85%) | 5 (Level 5: growth control rate is above 85%) |
| CCOC(=O)C12CCCC1C(c1cc(-n3c(=O)cc(C(F)(F)F)n(C)c3=O)c(F)cc1Cl)=NO2 (stereo not shown) [Compound 215] | 5 (Level 5: growth control rate is above 85%) | 5 (Level 5: growth control rate is above 85%) | 4 (Level 4: growth control rate is greater than or equal to 60% and less than 85%) | 5 (Level 5: growth control rate is above 85%) |
| CCCOC(=O)C12CCCC1C(c1cc(-n3c(=O)cc(C(F)(F)F)n(C)c3=O)c(F)cc1Cl)=NO2 (stereo not shown) [Compound 216] | 5 (Level 5: growth control rate is above 85%) | 5 (Level 5: growth control rate is above 85%) | 4 (Level 4: growth control rate is greater than or equal to 60% and less than 85%) | 5 (Level 5: growth control rate is above 85%) |
| CC(C)OC(=O)C12CCCC1C(c1cc(-n3c(=O)cc(C(F)(F)F)n(C)c3=O)c(F)cc1Cl)=NO2 (stereo not shown) [Compound 217] | 5 (Level 5: growth control rate is above 85%) | 5 (Level 5: growth control rate is above 85%) | 4 (Level 4: growth control rate is greater than or equal to 60% and less than 85%) | 5 (Level 5: growth control rate is above 85%) |
| COC(=O)C12CCCC1C(c1cc(/N=c3\sc(=O)n4n3CCCC4)c(F)cc1Cl)=NO2 (stereo not shown) [Compound 575] | 5 (Level 5: growth control rate is above 85%) | – | 4 (Level 4: growth control rate is greater than or equal to 60% and less than 85%) | 4 (Level 4: growth control rate is greater than or equal to 60% and less than 85%) |
| COC(=O)C12CCCC1C(c1cc(-c3nnc(C(F)(F)F)cc3OC)c(F)cc1Cl)=NO2 (stereo not shown) [Compound 578] | 5 (Level 5: growth control rate is above 85%) | – | 4 (Level 4: growth control rate is greater than or equal to 60% and less than 85%) | 5 (Level 5: growth control rate is above 85%) |
